Where two headings read alike, the source gives them in different places.
Assays:
HCT116 cells = assay: Re-expression of DCR1 (qRT-PCR) in HCT116 after inhibition of DNA methyltransferases; type: cell-based, Human; conditions: HCT116 (65% methylated for DCR1), 5000 nM for 3 days, p=0.005
Description: To investigate re-expression of DCR1 after inhibition of DNA metyltransferases, HCT116 cells were treated with 5000 nM 5-aza-2′-deoxycytidine for 3 days (DAC, Sigma Chemical Co., St. Louis. Mo., USA).
Total RNA was isolated using TriZoI reagent (Invitrogen, Breda, The Netherlands), and subjected to purification using RNeasy Mini Kit (Qiagen). After DNAse treatment (RQI DNAse, Promega, Leiden, The Netherlands). cDNA was made with the Iscript cDNA Synthesis Kit (BioRad, Veenendaal, The Netherlands). Quantitative RT-PCR was done using TaqMan® Gene Expression Assays from Applied Biosystems directed to DCR1 (Hs00182570_m1) and B2M (Hs00984230_m1). Relative expression levels were determined by calculating the Ct-ratio (Ct ratio=2̂−(Ct DCR1−Ct B2M)).
Student's T-test was used for comparison of DCR1 expression levels before and after DAC and TSA treatment of HCT116.

[1] = test system: patients with metastatic CRC; conditions: first-line therapy, discovery set; for HR (methylated vs unmethylated): PFS
[2] = test system: patients with metastatic CRC; assay: CAIRO arm A: response to single agent irinotecan in second line by DCR1 methylation; type: in vivo, human; conditions: 65 patients from arm A, data not shown
[3] = test system: patients with CRC (CAIROII); conditions: CAIRO II patients, estimate from literature; cited from earlier work

## Nc1ncn([C@H]2C[C@H](O)[C@@H](CO)O2)c(=O)n1 [5-aza-2′-deoxycytidine]
HCT116 cells
  DCR1 expression (qRT-PCR) after treatment: significant increased DCR1 expression

## CCCCCOC(=O)Nc1nc(=O)n([C@@H]2O[C@H](C)[C@@H](O)[C@H]2O)cc1F [Capecitabine]
[1]; BK methylation
  HR (methylated vs unmethylated): 1.1
[1]; CAT methylation
  HR (methylated vs unmethylated): 0.9
[1]; CCND2 methylation
  HR (methylated vs unmethylated): 1.3
[1]; CDK5 methylation
  HR (methylated vs unmethylated): 0.7
[1]; DAPK1 methylation
  HR (methylated vs unmethylated): 1.0
[1]; DCR1 methylation
  HR (methylated vs unmethylated): 1.4
[1]; EEF1A2 (1 assay methylation)
  HR (methylated vs unmethylated): 1.2
[1]; EEF1A2 (2 assay methylation)
  HR (methylated vs unmethylated): 1.3
[1]; HOXA9 methylation
  HR (methylated vs unmethylated): 0.8
[1]; IRAK1 methylation
  HR (methylated vs unmethylated): 1.6
[1]; LIG4 methylation
  HR (methylated vs unmethylated): 1.2
[1]; NUDT1 methylation
  HR (methylated vs unmethylated): 1.5
[1]; PAX3 (1) assay methylation
  HR (methylated vs unmethylated): 1.2
[1]; PAX3 (2) assay methylation
  HR (methylated vs unmethylated): 1.3
[1]; PRKCB1 methylation
  HR (methylated vs unmethylated): 1.1
[1]; PROK2 methylation
  HR (methylated vs unmethylated): 0.8
[1]; PROP1 methylation
  HR (methylated vs unmethylated): 2.0
[1]; PTGS2 methylation
  HR (methylated vs unmethylated): 1.1
[1]; RASSF1 methylation
  HR (methylated vs unmethylated): 1.2
[1]; RBBP8 methylation
  HR (methylated vs unmethylated): 0.9
[1]; RHOB methylation
  HR (methylated vs unmethylated): 0.7
[1]; SPO11 methylation
  HR (methylated vs unmethylated): 1.4
[1]; TBX5 methylation
  HR (methylated vs unmethylated): 2.3
[1]; TIPARP methylation
  HR (methylated vs unmethylated): 0.9
[1]; BK methylated (M) tumours
  Median PFS: 149 days
[1]; BK unmethylated (U) tumours
  Median PFS: 188 days
[1]; CAT methylated (M) tumours
  Median PFS: 116 days
[1]; CAT unmethylated (U) tumours
  Median PFS: 190 days
[1]; CCND2 methylated (M) tumours
  Median PFS: 202 days
[1]; CCND2 unmethylated (U) tumours
  Median PFS: 156 days
[1]; CDK5 methylated (M) tumours
  Median PFS: 125 days
[1]; CDK5 unmethylated (U) tumours
  Median PFS: 191 days
[1]; DAPK1 methylated (M) tumours
  Median PFS: 144 days
[1]; DAPK1 unmethylated (U) tumours
  Median PFS: 188 days
[1]; DCR1 methylated (M) tumours
  Median PFS: 184 days
[1]; DCR1 unmethylated (U) tumours
  Median PFS: 178 days
[1]; EEF1A2 (1 assay methylated (M) tumours)
  Median PFS: 202 days
[1]; EEF1A2 (1 assay unmethylated (U) tumours)
  Median PFS: 168 days
[1]; EEF1A2 (2 assay methylated (M) tumours)
  Median PFS: 246 days
[1]; EEF1A2 (2 assay unmethylated (U) tumours)
  Median PFS: 177 days
[1]; HOXA9 methylated (M) tumours
  Median PFS: 168 days
[1]; HOXA9 unmethylated (U) tumours
  Median PFS: 191 days
[1]; IRAK1 methylated (M) tumours
  Median PFS: 216 days
[1]; IRAK1 unmethylated (U) tumours
  Median PFS: 130 days
[1]; LIG4 methylated (M) tumours
  Median PFS: 173 days
[1]; LIG4 unmethylated (U) tumours
  Median PFS: 190 days
[1]; NUDT1 methylated (M) tumours
  Median PFS: 187 days
[1]; NUDT1 unmethylated (U) tumours
  Median PFS: 99 days
[1]; PAX3 (1) assay methylated (M) tumours
  Median PFS: 189 days
[1]; PAX3 (1) assay unmethylated (U) tumours
  Median PFS: 126 days
[1]; PAX3 (2) assay methylated (M) tumours
  Median PFS: 187 days
[1]; PAX3 (2) assay unmethylated (U) tumours
  Median PFS: 127 days
[1]; PRKCB1 methylated (M) tumours
  Median PFS: 192 days
[1]; PRKCB1 unmethylated (U) tumours
  Median PFS: 168 days
[1]; PROK2 methylated (M) tumours
  Median PFS: 182 days
[1]; PROK2 unmethylated (U) tumours
  Median PFS: 179 days
[1]; PROP1 methylated (M) tumours
  Median PFS: 188 days
[1]; PROP1 unmethylated (U) tumours
  Median PFS: 99 days
[1]; PTGS2 methylated (M) tumours
  Median PFS: 202 days
[1]; PTGS2 unmethylated (U) tumours
  Median PFS: 168 days
[1]; RASSF1 methylated (M) tumours
  Median PFS: 209 days
[1]; RASSF1 unmethylated (U) tumours
  Median PFS: 164 days
[1]; RBBP8 methylated (M) tumours
  Median PFS: 191 days
[1]; RBBP8 unmethylated (U) tumours
  Median PFS: 177 days
[1]; RHOB methylated (M) tumours
  Median PFS: 112 days
[1]; RHOB unmethylated (U) tumours
  Median PFS: 188 days
[1]; SPO11 methylated (M) tumours
  Median PFS: 177 days
[1]; SPO11 unmethylated (U) tumours
  Median PFS: 190 days
[1]; TBX5 methylated (M) tumours
  Median PFS: 188 days
[1]; TBX5 unmethylated (U) tumours
  Median PFS: 65 days
[1]; TIPARP methylated (M) tumours
  Median PFS: 177 days
[1]; TIPARP unmethylated (U) tumours
  Median PFS: 187 days

## CCc1c2c(nc3ccc(OC(=O)N4CCC(N5CCCCC5)CC4)cc13)-c1cc3c(c(=O)n1C2)COC(=O)[C@]3(O)CC [irinotecan, Irinotecan]
[2]
  association of DCR1 methylation with response to single agent second-line therapy: a similar trend was observed, although not statistically significant

## bevacuzimab: targeted therapy directed against VEGF
[3]
  survival benefit from bevacizumab: about two

Reference: patent publication US20150292026A1, “METHYLATION MARKERS PREDICTIVE FOR DRUG RESPONSE” (MDxHEALTH SA, priority 2012, published 2015)
